From patent US5593970A, “Heterocyclic anthracycline analogs” (priority 1994, dated 1997)
Counter-ions that a name gives are not always drawn.

Assays:
BE-1 = experiment: Soft agar colony formation disk diffusion assay; assay type: cell-based, human
How it was run: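 Two-layer agar; upper 0.4% Noble agar/RPMI-1066 with cells, lower 0.8% agar + 0.8% Tryptic Soy Broth. Drug on 6.5 mm filter disk; 37 °C, 5% CO2, 10–20 d. Inhibition zone (disk edge to closest colony) read at 40× with eyepiece micrometer.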

Colon = experiment: NCI assay, average per cancer type; details: Homo sapiens; for CC50: 48 h, read-out: Average LOG10 LC50; for GI50: read-out: Average LOG10 GI50
solid tumors = experiment: NCI assay, mean potency in solid tumors; details: for GI50 / CC50: Homo sapiens; for GI50: read-out: Average LOG10 GI50, Mean Potency in solid tumors; for Average LOG10 LC50, Mean Potency in solid tumors: 2880 min; for CC50: 48 h, read-out: Average LOG10 LC50, Mean Potency in solid tumors
CNS = experiment: NCI assay, average per cancer type; details: Homo sapiens; for GI50: read-out: Average LOG10 GI50; for CC50: 48 h, read-out: Average LOG10 LC50
SC Lung = experiment: NCI assay, average per cancer type; details: Homo sapiens; for GI50: read-out: Average LOG10 GI50; for CC50: 48 h, read-out: Average LOG10 LC50
Melanoma = experiment: NCI assay, average per cancer type; details: Homo sapiens; for CC50: 48 h, read-out: Average LOG10 LC50; for GI50: read-out: Average LOG10 GI50
Leukemia = experiment: NCI assay, average per cancer type; details: for CC50: 48 h, read-out: Average LOG10 LC50; for GI50: read-out: Average LOG10 GI50

| Compound | zone of inhibition (BE-1; 10 μg/DISK) [Zone Units] | zone of inhibition (BE-1; 100 μg/DISK) [Zone Units] | CC50 (Colon) [µM] | GI50 (Colon) [µM] | GI50 (solid tumors) [µM] | Average LOG10 LC50, Mean Potency in solid tumors (solid tumors) [log molar] | GI50 (CNS) [µM] | GI50 (SC Lung) [µM] | CC50 (Melanoma) [µM] | GI50 (Melanoma) [µM] | CC50 (Leukemia) [µM] | GI50 (Leukemia) [µM] | CC50 (solid tumors) [µM] | CC50 (CNS) [µM] | CC50 (SC Lung) [µM] |
| --- | --- | --- | --- | --- | --- | --- | --- | --- | --- | --- | --- | --- | --- | --- | --- |
| 3-(2-hydroxy)aceto-6-hydroxy-1,2,3,4-tetrahydro-(2-oxygen)naphthacene-5,12-dione and 3-(2-hydroxy)aceto-11-hydroxy-1,2,3,4-tetrahydro-(2-oxygen)naphthacene-5,12-dione [BCH-694] | 54.9 ± 8.6 | 189.0 ± 8.4 |  |  |  |  |  |  |  |  |  |  |  |  |  |
| 3-carbomethoxy-6-hydroxy-1,2,3,4-tetrahydro-(2-sulfur)naphthacene-5,12-dione and 3-carbomethoxy-11-hydroxy-1,2,3,4-tetrahydro(2-sulfur)naphthacene-5,12-dione [BCH-693] | 0 | 76.2 ± 21.5 |  |  |  |  |  |  |  |  |  |  |  |  |  |
| COC(=O)C1CC2=C(C(=O)c3c(cc4ccccc4c3O)C2=O)C(O[C@H]2C[C@H](NC(=O)C(F)(F)F)[C@H](O)[C@H](C)O2)O1 (mixture of isomers) [BCH-242, (1'S,1R,3S) and (1'S, 1S,3R)-Methyl[11-hydroxy-1-2',3',6'-trideoxy-3-trifluroacetamido-L-lyxohexopyranose)-5,12-dioxo-3,4,5,12-tetrahydroanthraceno[2,3-c]pyran-3-yl]formate] |  |  | 2.57 | 0.316 | 0.661 | -5.32 ± 0.20 | 1.55 | 0.355 | 3.89 | 0.437 | > 100 | 0.316 |  |  |  |
| CCOC(=O)[C@@H]1CC2=C(C(=O)c3c(c(O)c4ccccc4c3OC(C)=O)C2=O)[C@@H](O)O1 (mixture of isomers) [BCH-658, (1S,3S) and (1R,3R) Ethyl[11-acetoxy-1,6-dihydroxy-5,12-dioxo-3,4,5,12-tetrahydroanthraceno (2,3-c)pyran-3-yl]formate] | 0 | 0 | > 100 | 61.7 | 51.3 |  | 46.8 | > 100 | > 100 | > 100 | > 100 | > 100 | > 100 | > 100 | > 100 |
| CCOC(=O)[C@@H]1CC2=C(C(=O)c3cc4ccccc4c(OC(C)=O)c3C2=O)[C@@H](O)O1 (mixture of isomers) [BCH-660, (1S,3S) and (1R,3R)-Ethyl-[6-acetoxy-1-hydroxy-5,12-dioxo-3,4,5,12-tetrahydroanthraceno (2,3-c)pyran-3-yl]formate] | 45.7 ± 21.5 | 125.0 ± 12.7 | > 100 | 0.617 | 0.891 |  | 0.955 | 1 | 10.5 | 0.955 | > 100 | 0.316 | 11.2 | 15.8 | > 100 |
| COC(=O)[C@@H]1CC2=C(C(=O)c3c(c(OC)c4ccccc4c3O)C2=O)[C@@H](O[C@H]2C[C@H](NC(=O)C(F)(F)F)[C@H](O)[C@H](C)O2)O1 (mixture of isomers) [BCH-674, (1'S,1S,3R) and 1'S,1R,3S) Methyl(11-hydroxy-6-methoxy-1-[2',3',6'-trideoxy-3-trifluoroacetamido-4'-hydroxy-L-lyxohexopyranose]-5,12-dioxo-3,4,5,12-tetrahydroanthra-ceno[2,3-c]pyran-3-yl) formate] |  |  | 97.7 | 13.5 | 12.3 | -4.09 ± 0.11 | 13.8 | 13.2 | 89.1 | 13.2 | > 100 | 8.71 | 81.3 | 63.1 | 120 |
| COC(=O)[C@H]1CC2=C(C(=O)c3c(c(OC)c4ccccc4c3O)C2=O)[C@H](O[C@H]2C[C@H](NC(=O)C(F)(F)F)[C@H](O)[C@H](C)O2)O1 (mixture of isomers) [BCH-675, (1'S,1S,3R) and 1'S,1R,3S) Methyl(11-hydroxy-6-methoxy-1-[2',3',6'-trideoxy-3-trifluoroacetamido-4'-hydroxy-L-lyxohexopyranose]-5,12-dioxo-3,4,5,12-tetrahydroanthra-ceno[2,3-c]pyran-3-yl) formate] | 0 | 46.7 ± 5.3 | 85.1 | 8.71 | 8.32 |  | 10.7 | 7.24 | 79.4 | 5.89 | > 100 | 2.95 | 66.1 | 61.7 |  |
| CCOC(=O)C1CC2=C(CO1)C(=O)c1c(cc3ccccc3c1O)C2=O (stereo not shown) [BCH-651, Ethyl(6 and 11 hydroxy-5,12-dioxo-3,4,5,12-tetrahydro-anthraceno[2,3-c]pyran-3-yl)]formate] | 0 | 106.7 ± 21.5 | 41.7 | 3.39 | 5.25 |  | 10 | 2.75 | 34.7 | 2.75 | > 100 | 3.31 | 50.1 | 64.6 | 61.7 |
| CCOC(=O)C1CC2=C(CO1)C(=O)c1cc3ccccc3c(O)c1C2=O (stereo not shown) [BCH-653, Ethyl(6 and 11 hydroxy-5,12-dioxo-3,4,5,12-tetrahydro-anthraceno[2,3-c]pyran-3-yl)]formate] |  | 76.2 ± 21.5 | > 100 | 35.5 | 39.8 |  | 50.1 | 28.8 | > 100 | 33.1 | > 100 | 15.8 | > 100 | > 100 | > 100 |
| CCOC(=O)C1CC2=C(CO1)C(=O)c1c(c(O)c3ccccc3c1OC(C)=O)C2=O (stereo not shown) [BCH-654, Ethyl[11-acetoxy-6-hydroxy-5,12-dioxo-3,4,5,12-tetrahydroanthraceno(2,3-c)pyran-3-yl]formate] | 24.4 ± 8.6 | 153.0 ± 1.4 |  |  |  |  |  |  |  |  |  |  |  |  |  |
| CCOC(=O)[C@@H]1CC2=C(C(=O)c3cc4ccccc4c(O)c3C2=O)[C@@H](O[C@H]2C[C@H](NC(=O)C(F)(F)F)[C@H](O)[C@H](C)O2)O1 [BCH-681, (1'S,1R,3S)Ethyl[6-hydroxy-5,12-dioxo-1-(3'-trifuloroacetamido-1-daunosaminyl)-3,4,5,12-tetrahydroanthraceno(2,3-C)pyran-3-yl]formate] |  |  | 7.24 | 1.41 | 2.09 |  | 2.88 | 1.7 | 5.01 | 1.12 | < 100 | 2.04 | 12.3 | 22.4 | 6.61 |
